What was measured:
[1] = biological target: T1, human TLR7 (Homo sapiens, UniProt Q9NYK1); experiment: Agonistic activity on human TLR7 in HEK-Blue hTLR7 cell line (QUANTI-Blue reporter); type: cell-based; conditions: HEK-Blue hTLR7 cells, 16-22 h incubation, absorption at 630 nm; read-out: EC50 value of the agonistic effect on human TLR7
T1 construct: host or cells: HEK-Blue hTLR7 (HEK293-derived reporter cells)
T1 sequence (Q9NYK1 27-1049): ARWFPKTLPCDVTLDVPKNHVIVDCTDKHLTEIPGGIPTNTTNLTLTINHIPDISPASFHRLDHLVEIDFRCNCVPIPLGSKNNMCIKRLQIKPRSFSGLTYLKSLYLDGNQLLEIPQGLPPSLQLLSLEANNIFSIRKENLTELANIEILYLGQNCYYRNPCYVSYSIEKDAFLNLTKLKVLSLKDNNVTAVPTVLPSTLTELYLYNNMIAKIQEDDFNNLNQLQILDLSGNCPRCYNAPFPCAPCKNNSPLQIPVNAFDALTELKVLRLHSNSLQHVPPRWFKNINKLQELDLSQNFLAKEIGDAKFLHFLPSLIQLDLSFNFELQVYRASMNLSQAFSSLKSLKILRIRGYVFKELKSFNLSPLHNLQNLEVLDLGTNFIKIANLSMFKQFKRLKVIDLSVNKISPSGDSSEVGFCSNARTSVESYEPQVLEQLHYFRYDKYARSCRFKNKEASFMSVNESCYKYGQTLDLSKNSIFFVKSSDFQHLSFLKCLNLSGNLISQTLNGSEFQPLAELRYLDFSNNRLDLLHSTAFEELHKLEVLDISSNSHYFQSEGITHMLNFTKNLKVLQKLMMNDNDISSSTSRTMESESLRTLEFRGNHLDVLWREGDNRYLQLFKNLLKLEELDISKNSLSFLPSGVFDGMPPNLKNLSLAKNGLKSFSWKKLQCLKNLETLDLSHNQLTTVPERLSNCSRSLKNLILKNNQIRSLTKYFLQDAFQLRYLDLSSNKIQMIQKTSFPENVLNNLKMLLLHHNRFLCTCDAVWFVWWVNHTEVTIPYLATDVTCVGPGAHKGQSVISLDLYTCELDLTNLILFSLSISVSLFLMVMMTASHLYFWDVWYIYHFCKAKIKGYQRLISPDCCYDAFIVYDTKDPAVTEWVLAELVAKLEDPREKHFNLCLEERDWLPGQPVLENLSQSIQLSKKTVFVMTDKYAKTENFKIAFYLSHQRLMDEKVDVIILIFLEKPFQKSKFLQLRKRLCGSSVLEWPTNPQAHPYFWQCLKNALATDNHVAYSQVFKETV
Protocol: The TLR7 agonistic activity of the compounds of the invention in HEK-Blue™ hTLR7 cell line with stable expression of human TLR7 were assayed using the following method: • 1. Weighed the test compounds and prepared stock solutions with DMSO (Sigma) at a concentration of 10 mM. […] The highest concentration was 1 mM. • 2. The test compounds and DMSO control were diluted 10-fold in DPBS buffer (Gibco) and then added to a 96-well cell culture plate (Corning) at a volume of 20 μL/well. • 3. HEK-Blue™ hTLR7 cells (Invivogen) were digested with cell separation solution (Gibco), and counted (TC-20 cell counter, Bio-rad). Cells were diluted to 4.4E5/ml using DMEM cell medium (Gibco). Added the cells to a 96-well cell culture plate at a volume of 180 μL/well. The cells were incubated for 16-22 h at 37° C. in a 5% CO2 incubator. • 4. Prepared QUANTI-Blue detection reagent (Invivogen), and added into a new 96-well plate at a volume of 180 μL/well. Twenty μL of cell culture supernatant was transferred from the cell culture plate and added to the 96-well plate and incubated at 37° C. for 1-3 hours. • 5. Neo2 multifunctional microplate reader (Bio-Tek) was used to measure the optical absorption at 630 nm, and the EC50 was calculated by GraphPad Prism.
The agonistic effect of the compounds of the invention on human TLR7 can be determined by the above experiments, and the measured EC50 value is shown in Table 1.

[2] = test system: human peripheral blood mononuclear cells; experiment: IFN-α production by human peripheral blood mononuclear cells stimulated by compounds (ELISA); type: cell-based; conditions: human PBMC, about 8 hours, supernatant ELISA
Protocol: • 1. The frozen human peripheral blood mononuclear cells (Miaotong Biotechnology Co., LTD., PB010C) were dissolved in water bath at 37° C. After counting, the cells were diluted to 0.2M/mL, and 150 uL/well was added to the 96-well cell culture plate, and the cells were incubated for 40 hours. • 2. The test compounds were weighed and prepared with DMSO at a concentration of 10 mM. DMSO was used to dilute the test compounds by a 10-fold gradient, with a total of four concentration gradients. The highest concentration was 400 μM. • 3. The test compounds, DMSO control and positive controls were diluted 100 times with cell culture medium (RPMI 1640 cell medium, Gibco), and 50 μL was added to 96-well cell culture plates. • 4. The cells were incubated at 37° C. for about 8 hours, and the supernatant was collected by centrifugation. The level of IFN-α in the supernatant was determined by ELISA (IFN-α ELISA kit, Dakewe). • 5. Light absorption at 450 nm was measured by microplate reader, and IFN-α level in culture supernatant was quantified according to the standard curve.

| SMILES | EC50 [1] | IFN-α concentration post stimulation ([2]; compound 0.1 nM) | IFN-α concentration post stimulation ([2]; compound 1 nM) | IFN-α concentration post stimulation ([2]; compound 10 nM) |
| --- | --- | --- | --- | --- |
| CC(C)(C(=O)O)N1CCc2c3cc(cc2C1)Cn1c(=O)[nH]c2c(N)nc(nc21)OCCCCC3 [Compound I-26] | 105 nM | 12 pg/mL | 11 pg/mL | 96 pg/mL |
| CC(C)N1CCc2c3cc(cc2C1)Cn1c(=O)[nH]c2c(N)nc(nc21)OCCCCC3 [Compound I-35] | 10 nM | 251 pg/mL | 2767 pg/mL | 2776 pg/mL |
| Nc1nc2nc3c1[nH]c(=O)n3Cc1cc(c3c(c1)CN(C1CCC1)CC3)CCCCCO2 [Compound I-37] | 10 nM | 428 pg/mL | 1973 pg/mL | 2078 pg/mL |
| COCCN1CCc2c3cc(cc2C1)Cn1c(=O)[nH]c2c(N)nc(nc21)OCCCCC3 [Compound I-48] | 11 nM | 13 pg/mL | 2431 pg/mL | 2784 pg/mL |
| CC(C)N1CCc2cc3cc(c2C1)CCCCCOc1nc(N)c2[nH]c(=O)n(c2n1)C3 [Compound I-50] | 2 nM | 1509 pg/mL | 2615 pg/mL | 2173 pg/mL |
| Nc1nc2nc3c1[nH]c(=O)n3Cc1cc(c3c(c1)CCN(C1CCC1)C3)CCCCCO2 [Compound I-51] | 6 nM | 530 pg/mL | 2759 pg/mL | 2472 pg/mL |
| Nc1nc2nc3c1[nH]c(=O)n3Cc1cc3c(c(c1)OCCCCO2)CCN(C1CCC1)C3 [Compound I-60] | 14 nM | 12 pg/mL | 2412 pg/mL | 3127 pg/mL |
| Nc1nc2nc3c1[nH]c(=O)n3Cc1ccc(OC3CCNCC3)c(c1)C/C=C/CCO2 [Reference 1, reference compound] | 15 nM | 9 pg/mL | 74 pg/mL | 159 pg/mL |
| Nc1nc2nc3c1[nH]c(=O)n3Cc1ccc(Oc3ccc(CNC4CC4)cc3)c(c1)C/C=C\CCO2 [Reference 2, reference compound] | 31 nM | 8 pg/mL | 161 pg/mL | 558 pg/mL |
| Nc1nc2nc3c1[nH]c(=O)n3Cc1ccc(O)c(c1)C/C=C/CCO2 [Reference 3, reference compound] | 41 nM | 8 pg/mL | 9 pg/mL | 284 pg/mL |
| CCCCOc1nc(N)c2c(n1)N(Cc1cccc(CN3CCCC3)c1)CC(=O)N2 [Vesatolimod, reference compound] |  |  | 12 pg/mL | 12 pg/mL |

From patent US20240124486A1, “MACROCYCLIC TLR7 AGONIST, PREPARATION METHOD THEREFOR, PHARMACEUTICAL COMPOSITION AND USE THEREOF” (SHANGHAI VISONPHARMA CO., LTD., priority 2020, published 2024)
